# From article PMC10813753 (Biology, 2024)
# Values joined by “and” are separate entries in the source; they are usually repeats but may differ in a detail not shown here. Equal entries are not always repeated.
# Tests used:
# [1] = tested on: G4 Tel22 telomeric quadruplex DNA; assay: Equilibrium dialysis (non-competition and competition), Tel22; format: binding, human; conditions: for Kapp (Tel22): 10 mM potassium phosphate, 100 mM KCl, pH 7.2
# Experimental: (§1) Equilibrium dialysis experiments were conducted with unlabeled quadruplex DNA and/or with dsDNA sequences as previously reported. G4 sequence Tel22 is 5′-A(GGGTTA)3GGG-3′, and ds17 is 5′-GGG TTA CTA CGA ACT GG-3′/5′-CCA GTT CGT AGT AAC CC-3′. The buffering system employed contained 10 mM potassium phosphate buffer and 100 mM of KCl (pH = 7.2). DNA solution concentrations were determined at 90 °C through UV-visible spectrophotometry using the λmax values and extinction coefficients provided by IDT®. Extinction coefficients of TSC ligand 1 were calculated in water and in buffer in the absence and in the presence of 1% (w/v) triton X-100. Competition and non-competition dialysis experiments were carried out using the protocol described by Chaires, with minor modifications. Dialysis bags (Biotech Regenerated Cellulose (RC) membrane, part number 133192, Spectrum Laboratories, Inc., Fisher, Madrid, Spain) with a 0.2 mL volume were used, with G4 Tel22 or duplex ds17 DNA at a concentration of 75 μM, in monomeric units. The dialysis bags were placed in a beaker containing 200 mL of a solution of compound 1 (2 μM) in buffer. The beaker was sealed with Parafilm, and the solution was allowed to equilibrate at room temperature (22 °C) for 24 h with continuous stirring. Then, the contents of the dialysis bags were transferred into microcentrifuge tubes, and triton X-100 was added (1% (w/v) final concentration). After 2 h equilibration at room temperature, the total concentration of the ligand (Ct) was determined using UV-visible spectroscopy. The concentration of free compound 1 (Cf) was also determined spectrophotometrically from the dialysate solution. The concentration of the DNA-bound compound (Cb) was then calculated using the equation Cb = Ct − Cf, and Kapp was determined.
# Assays were performed at room temperature with ~2 μM solutions of 1, equilibrated with 75 μM (in monomeric units, tetrads or base pairs, respectively) of the tested DNA sequence for 24 h, in a buffer containing 100 mM KCl. Afterwards, the surfactanct triton X-100 was added to the solutions contained in the dialysis bags, and the recording of the UV-visible spectra was used to determine the concentrations of free and DNA-bound ligands for each situation: Tel22, ds17 or competition experiment Tel22-ds17. The concentration of DNA-bound ligand was determined based on at least two different experiments performed in duplicate or triplicate. […]
# ds17 duplex DNA = assay: Equilibrium dialysis (non-competition and competition), ds17; format: binding; conditions: for Kapp (ds17): 10 mM potassium phosphate, 100 mM KCl, pH 7.2
# Experimental: as §1, with “Then, the contents of the dialysis bags were transferred into microcentrifuge tubes, and triton X-100 was added (1% (w/v) final concentration).” left out
# Assays were performed at room temperature with ~2 μM solutions of 1, equilibrated with 75 μM (in monomeric units, tetrads or base pairs, respectively) of the tested DNA sequence for 24 h, in a buffer containing 100 mM KCl. […] The concentration of DNA-bound ligand was determined based on at least two different experiments performed in duplicate or triplicate. […]
# [2] = tested on: PC-3 cells (prostate tumor); assay: MTT viability assay PC-3; format: cell-based, human; conditions: for selectivity index (SI), prostate tumor PC3 versus prostate non-tumor RWPE-1: from MTT IC50 values
# Experimental: A panel of five tumor cell lines and two normal cell lines was used to preliminarily test the cytotoxicity of compounds 1–4, and the experiments were conducted as previously reported. All human cell lines were acquired from American Type Culture Collection (ATCC): tumor PC-3 and DU145 (prostate), HeLa (cervix), MCF7 (breast) and HT29 (colorectal) and healthy HFF-1 (fibroblast) and RWPE-1 (prostate). The cell catalogue reference and culture media used in the experiments were CRL-1435^TM, RPMI (PC-3), HTB-81™, RPMI (DU145), CCL-2^TM, DMEM (HeLa), HTB-22^TM, DMEM (MCF-7), HTB-38^TM, modified McCoy’s 5a medium, Catalogue No. 30-2007 (HT29), SCRC-1041^TM, DMEM (HFF-1) and CRL-11609^TM, Keratinocyte-SFM (RWPE-1). Culture media were purchased from Merck: RPMI-1640, DMEM + 10% FBS (Fetal Bovine Serum) + […] (penicillin/streptomycin/amphotericin B). Media and supplements for RWPE-1 were from ThermoFisher (17005075, Madrid, Spain). MCF7 cells were additionally supplemented with insulin (0.001 mg/mL in 500 mL media). Cells were kept at 37 °C (5% CO2), and culture media were renewed three times per week. When the cells reached 80–100% confluence, they were trypsinized and centrifuged, and the concentration was adjusted to each experiment. Cells were seeded at a density of ~10,000 cells/well into 24-well plates. The cells were treated with ligands 1–4 or the cytotoxic agents PhenQE8, PhenDC3 or cisplatin at different concentrations (10 nM–100 μM). Compound solutions were freshly prepared using the appropriate culture medium. Triplicate experiments were run. For MTT viability assays, after 72 h incubation, 50 μL of MTT (5 mg/mL) was added, and an additional incubation of 4 h was allowed. The medium in each well was then replaced by DMSO, and the absorbance was measured at 570 nm using an ELISA plate reader. Absorbances were normalized using negative controls (untreated cells, in triplicate, with a maximum of 0.9% DMSO content). Dose–response curves were obtained by plotting the percentage of viable cells versus logarithmic compound concentration. IC50 values were determined using Kaleidagragh^TM (3.52) software by adjusting the data to Equation 1/(1 + 10^(m2*(log(m1) − x))); m1 = 0.000003; m2 = 1.
# HeLa cells = assay: Annexin V/PI FITC apoptosis assay, HeLa; format: cell-based, human; conditions: 20 μM, 48 h, in comparison to untreated cells
# Experimental: For the Annexin V apoptosis experiments, approximately half of the cells used in combined experiments with cell cycle analysis were harvested via trypsinization, PBS washed and stained with the Annexin-V FITC & PI kit (Invitrogen^TM ref. V 13242, Thermo Fisher, Madrid, Spain) following a standard protocol. A total of 10,000 events were recorded, and the results obtained by flow cytometry were represented as dot plots.
# [3] = competition dialysis (1 + Tel22 + ds17)
# [4] = order of magnitude, equilibrium dialysis
substance,measurement,setting,value
"2,2′-(1,10-Phenanthroline-2,9-diyl)-bis(methylene)-bis(hydrazine-1-carbothioamide) [compound 1]",Kapp (Tel22),[1]; [3],1.2 ± 0.1 (M^−1) × 10^−5
same,binding selectivity Kapp (Tel22)/Kapp (ds17),[1]; competitive assay,~24 fold
same,Kapp (Tel22),"[1]; non-competition dialysis (1 + Tel22), apparent association constant, order 10^5 M^−1",1.1 ± 0.1 (M^−1) × 10^−5
same,apparent association constant to telomeric quadruplex,[1]; [4],~10^5 M^−1
same,Kapp (ds17),ds17 duplex DNA; [3],0.05 ± 0.01 (M^−1) × 10^−5
same,Kapp (ds17),ds17 duplex DNA; non-competition dialysis (1 + ds17),0.06 ± 0.01 (M^−1) × 10^−5
same,apparent association constant to dsDNA ds17,ds17 duplex DNA; [4],~10^3 M^−1 and ~ 5 × 10^3 M^−1
same,IC50,"[2]; MTT, 72 h",18 µM and 18.4 µM
same,"selectivity index (SI), prostate tumor PC3 versus prostate non-tumor RWPE-1",[2],5
same,"selectivity index (SI), prostate tumor PC3 versus prostate non-tumor RWPE-1",[2]; listed as neutral derivative,~ 5
same,increase in the number of early apoptotic and late apoptotic cells,HeLa cells,20–25%
